According to US12440492B2, “Pharmaceutical compositions comprising AKT protein kinase inhibitors” (Genentech, Inc., priority 2016, dated 2025):
Counter-ions that a name gives are not always drawn.

Legend:
Assay type in all cases: physicochemical
[1] = Particle size distribution (d10, d50, d90) by laser diffraction; details: for particle size distribution shape: laser diffraction, monohydrochloride
Description: FIG. 6 illustrates particle size distribution of the material of Example 6C (Batch HQ00003) spray dried with two-feed nozzle as obtained by laser diffraction A bimodal particle size distribution is obvious. FIG. 9 illustrates particle size distribution of spray dried material with rotary wheel nozzle, i.e. of the material of batch BS1506SA03 of Example 13 (Table 20) obtained using a Malvern Mastersizer 2000 equipped with Hydro 2000S wet sample dispersion unit (Malvern Instruments Ltd, Malvern/UK). A monomodal particle size distribution is obvious. The terms “d50 value” (sometimes also referred to as “d(0.5)-value”) and “mass-median diameter” (or MMD) can be used interchangeably and denote the average particle size by mass, i.e. the average equivalent diameter of a particle, which is defined as the diameter where 50% (w) of the particles of the ensemble have a larger equivalent spherical diameter, and the other 50% (w) have a smaller equivalent spherical diameter. In analogy, the term “d10-value” denotes the particle diameter wherein 10% (w) of the particles of the ensemble have a smaller equivalent spherical diameter. In analogy, the term “d90-value” denotes the particle diameter wherein 90% (w) of the particles of the ensemble have a smaller equivalent spherical diameter.

Glass transition = details: monohydrochloride
[2] = Solid state by X-ray powder diffraction; details: * indicates absence of crystalline API; for Solid state / Polymorphy (X-Ray, XRPD): monohydrochloride
Description: Bragg's law describes the diffraction of crystalline material with the equation “2d·sin(theta)=n·lambda”, wherein “d” denotes perpendicular distance (in Angstroms) between pairs of adjacent planes in a crystal (“d-spacing”), “theta” denotes the Bragg angle, “lambda” denotes the wavelength and “n” is an integer. When Bragg's law is fulfilled, the reflected beams are in phase and interfere constructively so that Bragg diffraction peaks are observed in the X-ray diffraction pattern. At angles of incidence other than the Bragg angle, reflected beams are out of phase and destructive interference or cancellation occurs. […] The XRPD pattern of an amorphous material is further characterized by one or more amorphous halos.
The term “XRPD” denotes the analytical method of X-Ray Powder Diffraction. The repeatability of the angular values is in the range of 2Theta±0.2°, more particularly in the range of 2Theta±0.1°. The term “approximately” given in combination with an angular value denotes the variance which is in the range of 2Theta±0.2°, particularly in the range of 2Theta±0.1°. The relative XRPD peak intensity is dependent upon many factors such as structure factor, temperature factor, crystallinity, polarization factor, multiplicity, and Lorentz factor. Relative intensities may vary considerably from one measurement to another due to preferred orientation effects. According to USP 941 (US Pharmacopoeia, 37th Edition, General Chapter 941), relative intensities between two samples of the same material may vary considerably due to “preferred orientation” effects. Anisotropic materials adopting preferred orientation will lead to anisotropic distribution of properties such as modulus, strength, ductility, toughness, electrical conductivity, thermal expansion, etc., as described e.g. in Kocks U. F. et al. (Texture and Anisotropy: Preferred Orientations in Polycrystals and Their Effect on Materials Properties, Cambridge University Press, 2000). In XRPD but also Raman spectroscopy, preferred orientations cause a change in the intensity distribution. Preferred orientation effects are particularly pronounced with crystalline APIs of relatively large particle size.

[3] = Solubility of ipatasertib
Description: (§1) Whereas poor solubility is often a limiting factor in the development of galenical formulations of other API's (active pharmaceutical ingredient), a high solubility can equally be problematic for the process performance. Due to this very high intrinsic hygroscopicity of the API, ipatasertib drug substance tends to auto-dissolve to a honey-like viscous liquid at increased humidity. Such high solubility and hygroscopicity may pose serious problems for processing as well as for stability and shelf-life of the final product. Therefore, conventional pharmaceutical compositions comprising ipatasertib and processes for the manufacture of pharmaceutical compositions comprising wetting (e.g. wet granulation) are difficult due to the high solubility and high hygroscopicity of the API.

[4] = Hygroscopicity of ipatasertib
Description: as §1

[5] = Mechanical deformation behaviour (brittleness); details: more brittle than lactose
Description: Mechanical compression during tableting of conventional pharmaceutical compositions comprising ipatasertib leads to exhausted compressibility, followed by elastic recovery of the tablet upon decompression. Therefore conventional pharmaceutical compositions comprising ipatasertib monohydrochloride are not suitable for direct compression due to lamination problems (crack formation during decompression) which are detectable as small cracks and fractures of the tablet core (e.g. using X-ray microtomography). Industrially required high-speed tableting processes may not be achievable.

[6] = Shear cell testing with Ring Shear Tester RST-XS; details: Pre-shear stress 1000 PA, 30 mL shear cell; monohydrochloride
Description: Similar to the classification used by Jenike (Dietmar Schulze, Pulver und Schüttgüter, 2009 Springer Verlag Berlin/DE), one can define flow behaviour based on the flow function constant (ffc) as follows:
The larger the flow function constant ffc, i.e., the smaller the ratio of the unconfined yield strength (σc) to the consolidation stress (σ1), the better a bulk solid's flow.

[7] = Bulk density, tapped density and Carr index; details: monohydrochloride
[8] = spray dried amorphous ipatasertib monohydrochloride powder
[9] = spray-dried amorphous ipatasertib monohydrochloride, rotary wheel atomizer

Particle size d10 [1, 8] [μm]	Particle size d50 [1, 8] [μm]	Particle size d90 [1, 8] [μm]	Glass Transition tg (Glass transition) [°C]	Solid state / Polymorphy (X-Ray, XRPD) [2]	Consolidation stress (σ1) [6] [PA]	Flow Function Constant (ffc) [6]	Particle size d10 [1, 9] [μm]	Particle size d50 [1, 9] [μm]	Particle size d90 [1, 9] [μm]	Bulk density [7, 9] [gcm^−3]	Tapped density [7, 9] [gcm^−3]	Polymorphy (X-Ray) [2]	SMILES	further results
0.7	5.2	10.8	132	amorphous	–	–	–	–	–	–	–	–	CC(C)NC[C@@H](C(=O)N1CCN(c2ncnc3c2[C@H](C)C[C@H]3O)CC1)c1ccc(Cl)cc1 [6B′, ipatasertib monohydrochloride]	–
–	–	–	–	–	–	–	–	–	–	–	–	–	CC(C)NC[C@@H](C(=O)N1CCN(c2ncnc3c2[C@H](C)C[C@H]3O)CC1)c1ccc(Cl)cc1 [ipatasertib, (S)-2-(4-chlorophenyl)-1-(4-((5R,7R)-7-hydroxy-5-methyl-6,7-dihydro-5H-cyclopenta[d]pyrimidin-4-yl)piperazin-1-yl)-3-(isopropylamino)propan-1-one]	solubility ([3]; water): > 1 g/g; solubility ([3]; water/ethanol 1:1): > 2 g/g; hygroscopicity ([4]; at 50% RH): ~6%; hygroscopicity ([4]; at 95% RH): > 35%
0.7	3.8	7.5	131	amorphous	–	–	–	–	–	–	–	–	CC(C)NC[C@@H](C(=O)N1CCN(c2ncnc3c2[C@H](C)C[C@H]3O)CC1)c1ccc(Cl)cc1 [6A′, ipatasertib monohydrochloride]	–
–	–	–	–	–	–	–	–	–	–	–	–	–	CC(C)NC[C@@H](C(=O)N1CCN(c2ncnc3c2[C@H](C)C[C@H]3O)CC1)c1ccc(Cl)cc1 [ipatasertib monohydrochloride, (S)-2-(4-chlorophenyl)-1-(4-((5R,7R)-7-hydroxy-5-methyl-6,7-dihydro-5H-cyclopenta[d]pyrimidin-4-yl)piperazin-1-yl)-3-(isopropylamino)propan-1-one as monohydrochloride salt]	brittle deformation characteristics relative to lactose [5]: 3 ×
11	29	56	–	amorph.*	1710	3.3	–	–	–	–	–	–	CC(C)NC[C@@H](C(=O)N1CCN(c2ncnc3c2[C@H](C)C[C@H]3O)CC1)c1ccc(Cl)cc1 [Composition 140910415, ipatasertib monohydrochloride]	Bulk density [7, 8]: 0.42 gcm^−3; Tapped density [7, 8]: 0.57 gcm^−3
–	–	–	–	–	1705	3.1	13	32	65	0.42	0.56	amorphous*	CC(C)NC[C@@H](C(=O)N1CCN(c2ncnc3c2[C@H](C)C[C@H]3O)CC1)c1ccc(Cl)cc1 [BS1506SA07, ipatasertib monohydrochloride]	–
–	–	–	–	–	1725	4.0	11	31	64	0.41	0.57	amorphous*	CC(C)NC[C@@H](C(=O)N1CCN(c2ncnc3c2[C@H](C)C[C@H]3O)CC1)c1ccc(Cl)cc1 [BS1506SA01, ipatasertib monohydrochloride]	–
0.7	4.3	–	131	amorphous	–	–	–	–	–	–	–	–	CC(C)NC[C@@H](C(=O)N1CCN(c2ncnc3c2[C@H](C)C[C@H]3O)CC1)c1ccc(Cl)cc1 [Example 6C, ipatasertib monohydrochloride]	particle size distribution shape [1]: bimodal
10	26	52	–	amorph.*	1730	3.1	–	–	–	–	–	–	CC(C)NC[C@@H](C(=O)N1CCN(c2ncnc3c2[C@H](C)C[C@H]3O)CC1)c1ccc(Cl)cc1 [Composition 140910418, ipatasertib monohydrochloride]	Bulk density [7, 8]: 0.39 gcm^−3; Tapped density [7, 8]: 0.55 gcm^−3
–	–	–	–	–	1709	2.9	12	31	62	0.39	0.55	amorphous*	CC(C)NC[C@@H](C(=O)N1CCN(c2ncnc3c2[C@H](C)C[C@H]3O)CC1)c1ccc(Cl)cc1 [BS1506SA03, ipatasertib monohydrochloride]	particle size distribution shape [1]: monomodal
